One data set concerns HL-60. Put plainly: Growth inhibition (IC50) in leukaemic HL-60 cells (Experiment 7). The following applies: Homo sapiens, HL-60, 24 Stunden. It is filed as cell-based. From the text: (§1) Hämatologische Zellen (CEM, HL-60) wurden für 24 Stunden mit unterschiedlichen Dosen verschiedener Triazenverbindungen inkubiert, um die IC50 zu bestimmen.
For another data set, the system named is CEM. Put plainly: Growth inhibition (IC50) in leukaemic CEM cells (Experiment 7). The class given is cell-based. The settings on record: Homo sapiens, CCRF-CEM, 24 Stunden.
Description: as §1

The subject of a further data set is MCF-7-Zellen. Put plainly: Intracellular metabolisation of triazenes in MCF-7 cell culture (Experiment 1). It is filed as in vitro ADME. The settings on record: MCF-7, 100nmol/ml, 100% FCS, binnen 20 Stunden. The protocol: Es wird gezeigt, dass Verbindungen nach Beispiel 1 schneller und in größerer Menge intrazellulär metabolisiert werden als die als Vergleichssubstanzen eingesetzten Verbindungen nach Präparat 2 und 5 (entsprechend Verbindungen nach Präparat 2 und Beispiel 2a jeweils der WO 2009/004060).
Die getesteten Verbindungen wurden wie folgt gelöst: • Erfindungsgemäße Verbindung: • Beispiel 1 : in 20 mg/ml DMSO
Vergleichssubstanzen: • Präparat 2: in 50mg/ml DMSO, • Präparat 5: in 50mg/ml Wasser.
Alle drei Substanzen wurden äquimolar in einer Dosis von 100nmol/ml auf 1 x 10^7 HepG2 bzw. MCF-7-Zellen gegeben. Als Zellkulturmedium wurde 100% fötales Kälberserum (FCS) verwendet. Für den Versuch wurde der Gehalt aus Ausgangsprodukt und Metaboliten im Zellüberstand nach 1, 3 und 6 (HepG2) bzw. 1,3 und 20 Stunden (MCF-7) Inkubationszeit ermittelt. Alle drei Substanzen zeigten in Kontrollversuchen mit 100% FCS nach 40 Stunden metabolische Stabilität.

Another data set concerns MDA-MB231. Put plainly: IC50 of triazenes in MDA-MB231 cell line (Experiment 3). The settings on record: Homo sapiens, MDA-MB-231; IC50 für die MDA-MB231 gemäß Experiment 3; used as incubation concentration for PBC. The class given is cell-based. From the text:
Die nachfolgenden Experimente 3 und 4 zeigen, dass die erfindungsgemäßen neuen Triazenverbindungen eine vergleichbare Anti-Tumorwirkung (IC50) in zahlreichen Krebszelllinien wie der HepG2 (Leber), HCT8 (Darm), DU-145 (Prostata), MCF-7 und MDA-MB-231 (Brust) und MiaPaca-2 (Bauchspeicheldrüse) bei bis zu 100fach niedrigeren Konzentrationen zeigen als vergleichbare Triazene wie DTIC, TMZ oder Substanzen wie sie in der WO 2009/004060 und der DE 1 7931 1 5 beschrieben sind.
Verschiedene Triazene wie erfindungsgemäße Verbindungen nach Beispiel 1, DTIC, TMZ sowie Verbindungen nach Präparat 2 und 5 (entsprechend Verbindungen nach Präparat 2 und Beispiel 2a jeweils der WO 2009/004060) sowie Verbindungen nach Beispiel 33 der DE1793115 wurden in DMSO bzw. Wasser gelöst.
(§2) Periphäre Blutzellen (PBC) werden jeweils mit der IC50 für die MDA-MB231 gemäß Experiment 3 der entsprechenden Substanzen inkubiert. Es wird gezeigt, dass die erfindungsgemäße Verbindung nach Beispiel 1 nicht mehr DNA-Schädigungen in den PBC erzeugt als eine Negativkontrolle, […]

Data set [1] can be described thus: Formulation trials for intravenous application (Experiment 8). It is filed as physicochemical. Here is the method:
Um die Testergebnisse aus Experiment 7 in einem in-vivo Xenograft Modell zu bestätigen, wurden Formulierungsversuche mit Verbindungen nach Beispiel 1 sowie der Verbindung nach Beispiel 2 aus DE 1 793 1 15, als den wirksamsten Verbindungen aus Experiment 7, unternommen.
15mg der Verbindung nach Beispiel 1 werden in 30µL DMSO ([…]) gelöst. Diese Stocklösung wird in 270µL 1 M Na2CO3 Lösung gegeben und nur leicht geschwenkt, nicht aber mittels Ultraschallbad behandelt.
Gleichermaßen sollte eine Formulierung für Verbindungen nach Beispiel 2 aus DE 1 7 93 1 15 hergestellt werden. Hier wurden 15µL der Verbindung nach Beispiel 2 vorgelegt. Bei einer Dichte von 1,08g/ml entsprach dies 16,2mg der Verbindung nach Beispiel 2. Dazu wurden 32,4µL DMSO gegeben. […] Sodann wurden 90µL einer frisch hergestellten 1 molaren Na2CO3 Lösung vorgelegt und 10µL der Lösung der Verbindung nach Beispiel 2 hinzugegeben. […] Auch mittels Ultraschallbad konnte keine Auflösung des erzeugten Niederschlags herbeiführen.

The subject of data set [2] is periphere Blutzellen (PBC). The experiment in a line: Cell damage (apoptosis rate, CaspACE assay, flow cytometry) in peripheral blood cells (Experiment 5). The class given is cell-based. The following applies: for % Zellen in Apoptose: Versuch 1 Lymphozyten, 24 Stunden incubation at the IC50 for MDA-MB231.
Description: Um die therapeutische Breite der neuen Substanzen abschätzen zu können, wurden periphere Blutzellen (PBC) und hämatologische Zellen (Nalm-6; CEM und U-937) für 24 Stunden mit unterschiedlichen Dosen verschiedener Triazenverbindungen bzw. Doxorubicin als positive Kontrolle für die hämatologischen Zelllinien inkubiert. Das Maß der Zellschädigung (Apoptoserate) wurde mittels CaspACE™ Assay (am Durchflusszytometer) bestimmt.
Verschiedene Triazene wie erfindungsgemäße Verbindungen nach Beispiel 1, TMZ sowie Verbindungen nach Präparat 2 und 5 (entsprechend Verbindungen nach Präparat 2 und Beispiel 2a jeweils der WO 2009/004060) wurden in DMSO bzw. Wasser entsprechend den Angaben in Abbildung 22 gelöst.
as §2

Setting [3] is: mean of Exp. 1-4, read-out: IC50 Mittelwert.
Where [4] appears, read: mean of Exp. 1-5, read-out: IC50 Mittelwert.

Where two headings read alike, the source gives them in different places.

For orientation: IC50 means the concentration at which inhibition is half-maximal. For the compound `COc1cccc2c1C(=O)c1c(O)c3c(c(O)c1C2=O)C[C@@](O)(C(=O)CO)C[C@@H]3O[C@H]1C[C@H](N)[C@H](O)[C@H](C)O1` [Doxorubicin], the IC50 in the data set on HL-60 (read-out: IC50 Exp. 1) was 0.0012 µM; with HL-60 (read-out: IC50 Exp. 2) it was 0.00116 µM; with HL-60 (read-out: IC50 Exp. 3), 0.000662 µM; with HL-60 (read-out: IC50 Exp. 4) it was 0.00131 µM; in the data set with HL-60 (read-out: IC50 Exp. 5), 0.00134 µM; in the data set with CEM (setting [3]) it was 8510 µM. Moreover, the IC50 was found to be 6810 µM in the data set on CEM (read-out: IC50 Exp. 1), 5890 µM with CEM (read-out: IC50 Exp. 2), 9940 µM with CEM (read-out: IC50 Exp. 3) and 114 µM in the data set on CEM (read-out: IC50 Exp. 4).
Turning to `CN(C)N=Nc1ccc(C(=O)c2ccc(OCCC(=O)NCC(=O)O)cc2)cc1` [Präparat 5], the IC50 in the data set on HL-60 (setting [4]) was 1190 µM; in the data set with HL-60 (read-out: IC50 Exp. 1) it was 829 µM; in the data set on HL-60 (read-out: IC50 Exp. 2), 879 µM; with HL-60 (read-out: IC50 Exp. 3), 1530 µM; in the data set on HL-60 (read-out: IC50 Exp. 4) it was 1510 µM; in the data set on CEM (setting [3]), 735 µM. The IC50 with CEM (read-out: IC50 Exp. 1) turned out to be 754 µM; in the data set on CEM (read-out: IC50 Exp. 2) it was 879 µM; in the data set with CEM (read-out: IC50 Exp. 3) it was 678 µM; with CEM (read-out: IC50 Exp. 4), 628 µM. In the data set with MCF-7-Zellen, this compound came in with a metabolisiert of approximately 30%.
With `CN(C)N=Nc1ccc(C(=O)c2ccccc2)cc1` [Beispiel 2 der DE 1793115], the IC50 in the data set on MDA-MB231 came to 25.5 µM; with HL-60 (setting [4]) it was 10 µM; with HL-60 (read-out: IC50 Exp. 1) it was 8.69 µM; in the data set on HL-60 (read-out: IC50 Exp. 2) it was 11.8 µM; with HL-60 (read-out: IC50 Exp. 3), 11.1 µM; with HL-60 (read-out: IC50 Exp. 4) it was 9.47 µM. In addition, the IC50 was 9.08 µM in the data set with HL-60 (read-out: IC50 Exp. 5); 10 µM in the data set on CEM (setting [3]); 10.3 µM with CEM (read-out: IC50 Exp. 1); 10.3 µM in the data set with CEM (read-out: IC50 Exp. 2); 8.69 µM in the data set on CEM (read-out: IC50 Exp. 3); 10.7 µM in the data set with CEM (read-out: IC50 Exp. 4). The “Löslichkeit in DMSO” value in data set [1] (16,2mg in 32,4µL DMSO) is “löste sich vollständig”. Besides, the “Löslichkeit in der Formulierung” value in data set [1] (DMSO stock solution given into 1 M Na2CO3 Lösung) is “Sofort fiel weißer Niederschlag aus”. Besides, the “stabile und verträgliche Formulierung” value in data set [1] (Lösungsmittel wie Cremophor, PEG400, Tween80, Poloxamer) was “nicht erreicht werden konnte”. In data set [2], the “% Zellen in Apoptose” value is reported as 6,570%.
Compound `CN(C)/N=N/c1[nH]cnc1C(N)=O` [Dacarbazine] displayed an IC50 in the data set with MDA-MB231 of 625 µM. Moreover, in data set [2], the “% Zellen in Apoptose” value was 8,260%.
As to `Cn1nnc2c(C(N)=O)ncn2c1=O` [Temozolomide, 4-methyl-5-oxo-2,3,4,6,8-pentazabicyclo [4.3.0] nona-2,7,9-triene-9-carboxamide], it took 515 µM to reach half-maximal inhibition in the data set on MDA-MB231 (IC50). In data set [2] (PBC, 24 stündige Inkubation), the “Zellschädigung (Apoptoserate) vs. Negativkontrolle” value is given as “Anstieg der Apoptoserate”. For the same compound, the “% Zellen in Apoptose” value in data set [2] is listed as 15,320%.

The values above are taken from patent publication EP2557075A1, “New triazene compounds for treating cancer” (Trin Therapeutics GmbH, priority 2011, dated 2013).
